Test results taken from ChEMBL document CHEMBL1201862, “PubChem BioAssay data set” (2004).
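Interpolation was linear, between the two tested concentrations surrounding the appropriate level; five concentrations were tested over 48 hours in 96-well plates. Here, GI50 denotes the concentration required for 50% inhibition of growth.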 The source made the active and inactive calls. Cut-off read from the data, not from the text of the source: active = GI50 up to about 1.1 µM and inactive = higher.

Columns and labels:
Assay in all cases: growth of human tumour cells (NCI), 48 h
PC-3 = tested on: PC-3
MCF7 = tested on: MCF7
TK-10 = tested on: TK-10
HT-29 = tested on: HT-29
HCT-116 = tested on: HCT-116
A549 = tested on: A549
SF-295 = tested on: SF-295
ACHN = tested on: ACHN
UACC-62 = tested on: UACC-62
OVCAR-4 = tested on: OVCAR-4
OVCAR-3 = tested on: OVCAR-3
Hs-578T = tested on: Hs-578T
UO-31 = tested on: UO-31
UACC-257 = tested on: UACC-257
SK-MEL-5 = tested on: SK-MEL-5
COLO 205 = tested on: COLO 205
SF-268 = tested on: SF-268
RXF 393 = tested on: RXF 393
M14 = tested on: M14
IGROV-1 = tested on: IGROV-1
786-0 = tested on: 786-0
A498 = tested on: A498
K562 = tested on: K562
SK-MEL-2 = tested on: SK-MEL-2
SK-OV-3 = tested on: SK-OV-3
NCI-H522 = tested on: NCI-H522
NCI/ADR-RES = tested on: NCI/ADR-RES
HCT-15 = tested on: HCT-15
HOP-62 = tested on: HOP-62
EKVX = tested on: EKVX
Malme-3M = tested on: Malme-3M
KM12 = tested on: KM12
SR = tested on: SR
SK-MEL-28 = tested on: SK-MEL-28
SNB-75 = tested on: SNB-75
MOLT-4 = tested on: MOLT-4
T47D = tested on: T47D
SNB-19 = tested on: SNB-19
HOP-92 = tested on: HOP-92
CAKI-1 = tested on: CAKI-1
MDA-MB-231 = tested on: MDA-MB-231
MDA-N = tested on: MDA-N
BT-549 = tested on: BT-549
DU-145 = tested on: DU-145
RPMI-8226 = tested on: RPMI-8226
LOX IMVI = tested on: LOX IMVI
MDA-MB-435 = tested on: MDA-MB-435
NCI-H23 = tested on: NCI-H23
OVCAR-5 = tested on: OVCAR-5
SN12C = tested on: SN12C
NCI-H226 = tested on: NCI-H226
U-251 = tested on: U-251
OVCAR-8 = tested on: OVCAR-8
NCI-H460 = tested on: NCI-H460
CCRF-CEM = tested on: CCRF-CEM
HCC 2998 = tested on: HCC 2998
HL-60 = tested on: HL-60
SW-620 = tested on: SW-620
SF-539 = tested on: SF-539

For `CC(=O)OC1CCC2(C)C(=CC(C3C=C4CC(OC(C)=O)CCC4(C)C4=C3C3CC5OC6(CCC(C)CO6)C(C)C5C3(C)CC4)C3=C2CCC2(C)C3CC3OC4(CCC(C)CO4)C(C)C32)C1` (stereo unspecified), the GI50 (PC-3) was 12.9 µM (inactive), the GI50 (MCF7) was 10.3 µM (inactive) and the GI50 (TK-10) was 14.5 µM (inactive). For the same compound, the GI50 (HT-29) was 14 µM (inactive), the GI50 (HCT-116) was 15.1 µM (inactive) and the GI50 (A549) was 13.7 µM (inactive). The GI50 (SF-295) was 13.2 µM (inactive), the GI50 (ACHN) was 15.8 µM (inactive) and the GI50 (UACC-62) was 13.4 µM (inactive). The GI50 (OVCAR-4) was 14 µM (inactive), the GI50 (OVCAR-3) was 15.1 µM (inactive) and the GI50 (Hs-578T) was 2.61 µM (inactive). The GI50 (UO-31) was 15.5 µM (inactive), the GI50 (UACC-257) was 10.2 µM (inactive) and the GI50 (SK-MEL-5) was 13 µM (inactive). For the same compound, the GI50 (COLO 205) was 17.6 µM (inactive), the GI50 (SF-268) was 11.4 µM (inactive) and the GI50 (RXF 393) was 16.1 µM (inactive). For the same compound, the GI50 (M14) was 14 µM (inactive), the GI50 (IGROV-1) was 11.5 µM (inactive) and the GI50 (786-0) was 16.1 µM (inactive). The GI50 (A498) was 17.1 µM (inactive), the GI50 (K562) was 4.43 µM (inactive) and the GI50 (SK-MEL-2) was 16.5 µM (inactive). For the same compound, the GI50 (SK-OV-3) was 16.3 µM (inactive), the GI50 (NCI-H522) was 6.17 µM (inactive) and the GI50 (NCI/ADR-RES) was 17.2 µM (inactive). The GI50 (HCT-15) was 14.3 µM, the GI50 (HOP-62) was 15.5 µM (inactive) and the GI50 (EKVX) was 17.9 µM (inactive). For the same compound, the GI50 (Malme-3M) was 13.6 µM (inactive), the GI50 (KM12) was 18.2 µM (inactive) and the GI50 (SR) was 11.9 µM (inactive). For the same compound, the GI50 (SK-MEL-28) was 17.7 µM (inactive), the GI50 (SNB-75) was 16.3 µM (inactive) and the GI50 (MOLT-4) was 2.07 µM (inactive). The GI50 (T47D) was 15.5 µM (inactive), the GI50 (SNB-19) was 16.7 µM (inactive) and the GI50 (HOP-92) was 14.1 µM (inactive). The GI50 (CAKI-1) was 18.2 µM (inactive), the GI50 (MDA-MB-231) was 16.3 µM (inactive) and the GI50 (MDA-N) was 17.2 µM (inactive). For the same compound, the GI50 (BT-549) was 15.6 µM (inactive), the GI50 (DU-145) was 14.2 µM (inactive) and the GI50 (RPMI-8226) was 4.98 µM (inactive). For the same compound, the GI50 (LOX IMVI) was 16.5 µM (inactive), the GI50 (MDA-MB-435) was 14.1 µM (inactive) and the GI50 (NCI-H23) was 14.7 µM (inactive). For the same compound, the GI50 (OVCAR-5) was 17.7 µM (inactive), the GI50 (SN12C) was 17.6 µM (inactive) and the GI50 (NCI-H226) was 23 µM (inactive). For the same compound, the GI50 (U-251) was 14.7 µM (inactive) and the GI50 (OVCAR-8) was 11.1 µM (inactive).
For `COc1ccc(C[C@H]2COC(=O)[C@@H]2Cc2cccc(Br)c2)cc1OC`, the GI50 (PC-3) was 15.8 µM (inactive), the GI50 (NCI-H460) was 26.2 µM (inactive) and the GI50 (MCF7) was 16.2 µM (inactive). For the same compound, the GI50 (TK-10) was 30.4 µM (inactive), the GI50 (HT-29) was 21.8 µM (inactive) and the GI50 (HCT-116) was 12.8 µM (inactive). The GI50 (A549) was 32.9 µM (inactive), the GI50 (SF-295) was 32.7 µM (inactive) and the GI50 (CCRF-CEM) was 5.11 µM (inactive). For the same compound, the GI50 (ACHN) was 18.6 µM (inactive), the GI50 (UACC-62) was 25.6 µM (inactive) and the GI50 (HCC 2998) was 24.5 µM (inactive). For the same compound, the GI50 (HL-60) was 12.2 µM (inactive), the GI50 (OVCAR-4) was 10.4 µM (inactive) and the GI50 (OVCAR-3) was 20 µM (inactive). The GI50 (Hs-578T) was 32.3 µM (inactive), the GI50 (UO-31) was 22.9 µM (inactive) and the GI50 (UACC-257) was 21.5 µM (inactive). The GI50 (SK-MEL-5) was 15.7 µM (inactive), the GI50 (COLO 205) was 14 µM (inactive) and the GI50 (SF-268) was 29.7 µM (inactive). For the same compound, the GI50 (RXF 393) was 23.6 µM (inactive), the GI50 (M14) was 14.4 µM (inactive) and the GI50 (IGROV-1) was 31.6 µM (inactive). For the same compound, the GI50 (786-0) was 28.1 µM (inactive), the GI50 (K562) was 5.97 µM (inactive) and the GI50 (SK-MEL-2) was 26 µM (inactive). The GI50 (SK-OV-3) was 26.6 µM (inactive), the GI50 (NCI-H522) was 19.5 µM (inactive) and the GI50 (NCI/ADR-RES) was 24.2 µM (inactive). For the same compound, the GI50 (HCT-15) was 29.7 µM, the GI50 (HOP-62) was 31.4 µM (inactive) and the GI50 (SW-620) was 22.5 µM (inactive). The GI50 (EKVX) was 29.4 µM (inactive), the GI50 (Malme-3M) was 21.2 µM (inactive) and the GI50 (KM12) was 18.8 µM (inactive). For the same compound, the GI50 (SR) was 3.05 µM (inactive), the GI50 (SK-MEL-28) was 30.5 µM (inactive) and the GI50 (SNB-75) was 8.99 µM (inactive). For the same compound, the GI50 (MOLT-4) was 8.75 µM (inactive), the GI50 (T47D) was 27.7 µM (inactive) and the GI50 (SNB-19) was 52 µM (inactive). For the same compound, the GI50 (HOP-92) was 12.1 µM (inactive), the GI50 (CAKI-1) was 15.3 µM (inactive) and the GI50 (MDA-MB-231) was 19.1 µM (inactive). The GI50 (MDA-N) was 20.7 µM (inactive), the GI50 (BT-549) was 13.9 µM (inactive) and the GI50 (SF-539) was 19.5 µM (inactive). The GI50 (DU-145) was 33.3 µM (inactive), the GI50 (RPMI-8226) was 17.8 µM (inactive) and the GI50 (LOX IMVI) was 3.85 µM (inactive). The GI50 (MDA-MB-435) was 26.6 µM (inactive), the GI50 (NCI-H23) was 21.2 µM (inactive) and the GI50 (OVCAR-5) was 33.1 µM (inactive). For the same compound, the GI50 (SN12C) was 27.5 µM (inactive), the GI50 (NCI-H226) was 29.9 µM (inactive) and the GI50 (U-251) was 26.4 µM (inactive). The GI50 (OVCAR-8) was 24.4 µM (inactive).
